Assay results from article PMC10455339, “Combining the Peptide RWQWRWQWR and an Ethanolic Extract of Bidens pilosa Enhances the Activity against Sensitive and Resistant Candida albicans and C. auris Strains” (Journal of Fungi, 2023).
Values joined by “and” are separate entries in the source; they are usually repeats but may differ in a detail not shown here. Equal entries are not always repeated. Where two headings read alike, the source gives them in different places. Ends that are not written are not given here.

What was measured:
C. albicans = details: cited from earlier work
Excerpt: Antifungal activity of other phenolic acids, such as chlorogenic acid, has been reported against Candida spp. resistant to FLC, generating a death process similar to apoptosis.

C. albicans 256-PUJ-HUSI = assay: Antifungal activity (MIC/MFC), broth microdilution; type: cell-based, Candida albicans; details: FLC-resistant isolate, n = 3
Method: (§1) For the determination of the MICs, the guidelines of the Clinical Laboratory Standards Institute (CLSI BMD-M27-A4) were used with some modifications. Serial dilutions were made, for peptides from 6.25 to 200 µg/mL and for extracts from 31.2 to 2000 µg/mL, with RPMI 1640 medium in a 96-well microdilution plate (100 µL), and then 100 µL of the adjusted inoculum (0.5–2.5 × 10^3 cells/mL) was added and incubated at 37 °C, and visual and spectrophotometric reading (595 nm) was performed at 48 h. Controls: growth control in RPMI or DMSO, control with a known antifungal: FLC, C. albicans SC5314 (1 µg/mL), C. albicans 256 (64 µg/mL), C. auris 435 (8 µg/mL), and C. auris 537 (128 µg/mL), sterility controls correspond to RPMI medium and SS. The MIC was defined as the minimum concentration of peptide or extract that inhibited 50% of growth compared to the control. To determine the minimal fungicidal concentration (MFC), from the concentrations where no growth was observed, including the controls, a subculture was made on SDA and incubated for 24 h at 37 °C. The MFC was defined as the minimum concentration of peptide or extract that eliminated 100% of the growth compared to the control (n = 3).

C. auris 537-PUJ-HUSI = assay: Antifungal activity (MIC/MFC), broth microdilution; type: cell-based, Candida auris; details: FLC- and AmB-resistant isolate, n = 3
Method: as §1

C. auris 435-PUJ-HUSI = assay: Antifungal activity (MIC/MFC), broth microdilution; type: cell-based, Candida auris; details: FLC-sensitive isolate, n = 3; for MIC: CLSI M27-A4 modified, RPMI 1640, 37 °C, 48 h, MIC = 50% growth inhibition; for MFC: subculture on SDA 24 h 37 °C, MFC = eliminates 100% of growth
Method: as §1

C. albicans SC5314 = assay: microbe, parasite or virus in culture; type: cell-based, Candida albicans; details: n = 3; for MIC: CLSI M27-A4 modified, RPMI 1640, 37 °C, 48 h, MIC = 50% growth inhibition; for MFC: subculture on SDA 24 h 37 °C, MFC = eliminates 100% of growth
Method: as §1

[1] = reported against other C. albicans strains
[2] = reported against C. albicans strains
[3] = CLSI M27-A4 modified, RPMI 1640, 37 °C, 48 h, MIC = 50% growth inhibition
[4] = subculture on SDA 24 h 37 °C, MFC = eliminates 100% of growth

Which MIC (C. albicans; [1]) does the source give for “FKCRRWQWRMKKLGA [bLF (or LFB) 17–30, short peptide derived from LfcinB, …]” here?
The MIC was 5 to 10 µM.

For “GAPSITCVRRAF [Peptide 3, short peptide derived from LfcinB, …]”, which MIC (C. albicans; [1]) is on record?
Its MIC is 635 µM.

For “Lfcin B-18-42: short peptide derived from LfcinB (FKCRRWQWRMKKLGAPSITCVRRAF; ends and bridges not checked; cysteine pairing not given here; UniProt P24627 36-60, looked up, fragment)”, which MIC (C. albicans; [2]) is on record?
Its MIC is 100 µg/mL.

For “LfcinB: Bovine lactoferricin, AMP derived from bovine lactoferrin (FKCRRWQWRMKKLGAPSITCVRRAF; ends and bridges not checked; cysteine pairing not given here; UniProt P24627 36-60, looked up)”, which MIC (C. albicans; [2]) is on record?
The MIC was 0.8 to 400 µg/mL.

Which MIC (C. albicans; [2]) does the source give for “RRWQWRMKK [Lfcin B-9, short peptide derived from LfcinB, …]” here?
Its MIC is 25,000–32,000 μg/mL.

For “RWQWHomoFQWR [[^5HomoF]-R-1-R, RWQWHomoFQWR, position 5 replaced by Homophenylalanine]”, which MIC (C. albicans 256-PUJ-HUSI; [3]) is on record?
The MIC was 200 μg/mL and 134 μM.

And the MFC (C. albicans 256-PUJ-HUSI; [4])?
Its MFC is > 200 μg/mL and > 134 μM.

And the MIC (C. auris 537-PUJ-HUSI; [3])?
The MIC was > 200 μg/mL and > 134 μM.

What about the MFC (C. auris 537-PUJ-HUSI; [4]) of the same substance?
The MFC was > 200 μg/mL and > 134 μM.

And the MIC (C. auris 435-PUJ-HUSI)?
Its MIC is > 200 μg/mL and > 134 μM.

And the MFC (C. auris 435-PUJ-HUSI)?
Its MFC is > 200 μg/mL and > 134 μM.

What about the MIC (C. albicans SC5314) of the same substance?
Its MIC is 200 μg/mL and 134 μM.

What about the MFC (C. albicans SC5314) of the same substance?
The MFC was > 200 μg/mL and > 134 μM.

For “RWQWNalQWR [[^5Nal]-R-1-R, RWQWNalQWR, position 5 replaced by Naphthylalanine]”, which MIC (C. auris 435-PUJ-HUSI) is on record?
The MIC was > 200 μg/mL and > 131 μM.

And the MFC (C. auris 435-PUJ-HUSI)?
Its MFC is > 200 μg/mL and > 131 μM.

And the MIC (C. albicans SC5314)?
Its MIC is > 200 μg/mL and > 131 μM.

And the MFC (C. albicans SC5314)?
Its MFC is > 200 μg/mL and > 131 μM.

With “RWQWRM [Peptide 5, short peptide derived from LfcinB, RWQWRM]” as the substance, how does the MIC (C. albicans; [1]) read?
Its MIC is 500 µM.
